In patent US8785199B2, “Culture medium and method for inducing differentiation into adipocytes” (Fujirebio, Inc, priority 2009, dated 2014):

The molecules below were run on human bone marrow-derived mesenchymal stem cells (assay: Differentiation induction of human bone marrow-derived mesenchymal stem cells into adipocytes (oil red O staining, adiponectin ELISA, real-time PCR)). Conditions: not given.
Format: cell-based
Protocol: A serum-free control culture medium (Comparative Example 1) was produced by adding 5 μM of LPA, 1 mM of vitamin C, 100 μM of biotin, and 41.5 nM of progesterone to Dulbecco's modified Eagle's medium (DMEM) containing HEPES (concentration of 25 mM).
To HEPES-containing DMEM, at the final concentrations, 500 μM of isobutylmethylxanthine (IBMX), 1 μM of dexamethasone, 1 μM of insulin, and 1 μM of rosiglitazone were added to produce an adipocyte differentiation inducing culture medium.
To the above adipocyte differentiation inducing culture medium, 5 μM of LPA, 1 mM of vitamin C, 100 μM of biotin, and 41.5 nM of progesterone were added to produce a serum-free differentiation inducing culture medium according to the present invention (hereinafter referred to as serum-free differentiation culture medium: Example 1).
To each of HEPES-containing DMEM and the adipocyte differentiation inducing culture medium, 10% of fetal bovine serum (FBS) was added to produce a conventional culture medium (Comparative Example 2) and a conventional differentiation culture medium (Comparative Example 3).
Human bone marrow-derived mesenchymal stem cells (strain name: normal human mesenchymal stem cells (Cryo hMSC purchased from LONZA) were seeded in a culture container with a 48-hole culture plate at a cell density of 30,000 cells/cm^2. These culture media were replaced with respective fresh ones every three to four days to culture the cells at 37 degrees C. and 5% CO2 for 7 to 21 days, thereby inducing differentiation into adipocytes.
The adipocytes were confirmed by oil red 0 staining of lipid droplets accumulated in the cells. Additionally, the oil red O-stained cells were extracted with isopropanol to measure the quantity of lipid accumulated in the cells using an absorption spectrophotometer (wavelength of 492 nm). Then, the quantities of adiponectin secreted from the cells in the three days: Day 4 to Day 7, Day 11 to Day 14, and Day 18 to Day 21 of differentiation induction were confirmed using an adiponectin ELISA kit (Fujirebio Inc). Furthermore, the mRNA expressions of PPAR-gamma and adiponectin were confirmed by real-time PCR. The forward and reverse primers for PPRA-gamma used were […] (SEQ ID NO:1) and tcgcctttgctttggtcag (SEQ ID NO:2), respectively; the forward and reverse primers for adiponectin used were […] (SEQ ID NO:3) and […] (SEQ ID NO:4), respectively; and the forward and reverse primers for GAPDH used were […] (SEQ ID NO:5) and […] (SEQ ID NO:6), respectively.
As in Example 1, at the final concentrations, 500 μM of IBMX, 1 μM of dexamethasone, 1 μM of insulin, and 1 μM of rosiglitazone were added to HEPES-containing DMEM to produce an adipocyte differentiation inducing culture medium. To the adipocyte differentiation inducing basal medium, 5 μM of LPA, 1 mM of vitamin C, […], and 41.5 nM of progesterone were added to produce a serum-free differentiation culture medium according to the present invention (Example 2). On the other hand, for comparison, there were also prepared a culture medium without LPA alone (Comparative Example 4), a culture medium without vitamin C alone (Comparative Example 5), a culture medium without biotin alone (Comparative Example 6), and a culture medium without progesterone alone (Comparative Example 7).
To DMEM not containing HEPES, at the final concentrations, 500 μM of IBMX, 1 μM of dexamethasone, 1 μM of insulin, and 1 μM of rosiglitazone were added to produce an adipocyte differentiation inducing culture medium 2. To the adipocyte differentiation inducing basal medium 2, 5 μM of LPA, 1 mM of vitamin C, 100 μM of biotin, and 41.5 nM of progesterone were added to produce a serum-free differentiation culture medium 2 (Comparative Example 8).
As in Example 1, human bone marrow-derived mesenchymal stem cells were seeded in the wells of a 48-hole culture plate at the cell density of 30,000 cells/cm^2. […]

| Molecule | effect on the quantity of lipid droplets in adipocytes when added to the culture medium |
| --- | --- |
| CC(=O)[C@H]1CC[C@H]2[C@@H]3CCC4=CC(=O)CC[C@]4(C)[C@H]3CC[C@]12C [progesterone] | increasing the quantity of lipid droplets in adipocytes |

Same assay, conditions: component left out of the serum-free differentiation culture medium; 21 days; FIG. 4

| Molecule | necessity of the component for inducing differentiation into adipocytes |
| --- | --- |
| 1-oleoyl lysophosphatidic acid sodium [LPA] | necessary |
| O=S(=O)(O)CCN1CCN(CCO)CC1 [HEPES, 2-[4-(2-hydroxyethyl)-1-piperazinyl]ethanesulfonic acid] | necessary |
| O=C(O)CCCC[C@@H]1SC[C@@H]2NC(=O)N[C@@H]21 [biotin] | necessary |
| CC(=O)[C@H]1CC[C@H]2[C@@H]3CCC4=CC(=O)CC[C@]4(C)[C@H]3CC[C@]12C [progesterone] | not essential |
| O=C1O[C@H]([C@@H](O)CO)C(O)=C1O [vitamin C] | necessary |
